Structures are written as SMILES. The source made the active and inactive calls. No rule for the calls is given here.

This data set has as its system rodent lifetime carcinogenesis bioassay, tumor incidence TD50. The data set is described as follows: carcinogenic potency in animals, long-term in vivo studies, CPDB compilation (AID 1745844).

`CN(CC(O)CO)N=O` (configuration not stated): the TD50 (usually the dose at which the toxic effect under study appears in half of the subjects) was 0.509 mg/kg/day (hamster, strain Syrian Golden, females, by gavage, site: any site (literature study), lesion: several types, types named in the paper, dosed 41 weeks, study length 81 weeks); 12.7 mg/kg/day (inactive) (hamster, strain Syrian Golden, females, by gavage, site: liver, lesion: all vascular tumors, dosed 41 weeks, study length 81 weeks); 1.51 mg/kg/day (hamster, strain Syrian Golden, females, by gavage, site: nasal mucosa, lesion: carcinoma, dosed 41 weeks, study length 81 weeks); 0.94 mg/kg/day (hamster, strain Syrian Golden, females, by gavage, site: nasal mucosa, lesion: several types, types named in the paper, dosed 41 weeks, study length 81 weeks); 1.48 mg/kg/day (rat, strain Fischer 344, females, in drinking water, site: esophagus, lesion: several types, types named in the paper, dosed 40 weeks, study length 110 weeks); 3.13 mg/kg/day (rat, strain Fischer 344, females, in drinking water, site: liver, lesion: hepatocellular carcinoma, dosed 40 weeks, study length 110 weeks). Besides, the TD50 is 1.01 mg/kg/day (rat, strain Fischer 344, females, in drinking water, site: liver, lesion: neoplastic nodule, dosed 40 weeks, study length 110 weeks); 0.67 mg/kg/day (rat, strain Fischer 344, females, in drinking water, site: liver, lesion: several types, types named in the paper, dosed 40 weeks, study length 110 weeks); 0.646 mg/kg/day (rat, strain Fischer 344, females, in drinking water, site: lung, lesion: several types, types named in the paper, dosed 40 weeks, study length 110 weeks); 1.48 mg/kg/day (rat, strain Fischer 344, females, in drinking water, site: nasal cavity, lesion: several types, types named in the paper, dosed 40 weeks, study length 110 weeks).

Take `Clc1ccc2c(c1)Oc1ccc(Cl)cc1O2`: the carcinogen call is “negative (inactive)” (mouse, strain B6C3F1, females, in feed, site: any site (literature study), lesion: several types, types named in the paper, dosed 90 weeks, study length 91 weeks); “negative (inactive)” (rat, strain Osborne-Mendel, females, in feed, site: any site (literature study), lesion: several types, types named in the paper, dosed 110 weeks, study length 110 weeks); “negative (inactive)” (rat, strain Osborne-Mendel, males, in feed, site: any site (literature study), lesion: several types, types named in the paper, dosed 110 weeks, study length 110 weeks). For the same compound, the TD50 was 2750 mg/kg/day (mouse, strain B6C3F1, males, in feed, site: all sites, lesion: hemangioma + hemangiosarcoma, dosed 90 weeks, study length 92 weeks); 1920 mg/kg/day (mouse, strain B6C3F1, males, in feed, site: all sites, lesion: leukemia + lymphoma, dosed 90 weeks, study length 92 weeks); 2910 mg/kg/day (mouse, strain B6C3F1, males, in feed, site: any site (literature study), lesion: several types, types named in the paper, dosed 90 weeks, study length 92 weeks); 2120 mg/kg/day (mouse, strain B6C3F1, males, in feed, site: liver, lesion: hepatocellular adenoma + hepatocellular carcinoma + neoplastic nodule, dosed 90 weeks, study length 92 weeks); 2120 mg/kg/day (mouse, strain B6C3F1, males, in feed, site: liver, lesion: hepatocellular adenoma + hepatocellular carcinoma, dosed 90 weeks, study length 92 weeks); 12900 mg/kg/day (rat, strain Osborne-Mendel, males, in feed, site: liver, lesion: hepatocellular adenoma + hepatocellular carcinoma + neoplastic nodule, dosed 110 weeks, study length 110 weeks).

Consider `CC1=C(/C=C/C(C)=C/C=C/C(C)=C/C(=O)O)C(C)(C)CCC1`, for which the carcinogen call (rat, strain Sprague-Dawley, females, i.p., site: any site (literature study), lesion: malignant tumor, dosed 104 weeks, study length 104 weeks) was “negative (inactive)”. Also, for the setting “rat, strain Sprague-Dawley, males, i.p., site: any site (literature study), lesion: malignant tumor, dosed 104 weeks, study length 104 weeks”, the TD50 was 188 mg/kg/day (inactive).

For the compound `BrC(Br)Br`, the TD50 reads like this: (mouse, strain B6C3F1, females, by gavage, site: liver + spleen, lesion: hemangiosarcoma, dosed 103 weeks, study length 106 weeks) 1110 mg/kg/day (inactive); (mouse, strain B6C3F1, females, by gavage, site: liver, lesion: hepatocellular adenoma + hepatocellular carcinoma + neoplastic nodule, dosed 103 weeks, study length 106 weeks) 570 mg/kg/day; (mouse, strain B6C3F1, males, by gavage, site: any site (literature study), lesion: several types, types named in the paper, dosed 103 weeks, study length 106 weeks) 41 mg/kg/day; (mouse, strain B6C3F1, males, by gavage, site: liver, lesion: hepatocellular adenoma + hepatocellular carcinoma + neoplastic nodule, dosed 103 weeks, study length 106 weeks) 53.6 mg/kg/day; (mouse, strain B6C3F1, males, by gavage, site: lung, lesion: alveolar/bronchiolar adenoma + alveolar/bronchiolar carcinoma, dosed 103 weeks, study length 106 weeks) 2450 mg/kg/day; (mouse, strain B6C3F1, males, by gavage, site: subcutaneous tissue, lesion: fibrosarcoma + sarcoma, dosed 103 weeks, study length 106 weeks) 81.9 mg/kg/day (inactive). For the same compound, the TD50 (rat, strain Fischer 344, females, by gavage, site: large intestine, lesion: adenocarcinoma + polypoid adenoma, dosed 103 weeks, study length 106 weeks) is 469 mg/kg/day; the TD50 (rat, strain Fischer 344, females, by gavage, site: large intestine, lesion: polypoid adenoma, dosed 103 weeks, study length 106 weeks) came out at 632 mg/kg/day; the TD50 (rat, strain Fischer 344, females, by gavage, site: liver, lesion: hepatocellular adenoma + hepatocellular carcinoma + neoplastic nodule, dosed 103 weeks, study length 106 weeks) was 676 mg/kg/day; the TD50 (rat, strain Fischer 344, males, by gavage, site: any site (literature study), lesion: several types, types named in the paper, dosed 103 weeks, study length 105 weeks) was 513 mg/kg/day; the TD50 (rat, strain Fischer 344, males, by gavage, site: large intestine, lesion: adenocarcinoma + polypoid adenoma, dosed 103 weeks, study length 105 weeks) was 1050 mg/kg/day; the TD50 (rat, strain Fischer 344, males, by gavage, site: testis, lesion: interstitial-cell adenoma, bilateral + interstitial-cell adenoma, dosed 103 weeks, study length 105 weeks) was 75 mg/kg/day. In addition, the TD50 (rat, strain Fischer 344, males, by gavage, site: thyroid gland, lesion: follicular-cell carcinoma, dosed 103 weeks, study length 105 weeks) was 656 mg/kg/day.

Take `CC1CC(=O)O1` (configuration not stated): the TD50 (rat, strain Eastern Sprague-Dawley, females, by gavage, site: forestomach, lesion: squamous-cell carcinoma, dosed 70 weeks, study length 70 weeks) was 13.8 mg/kg/day.

As for `NNc1ccc(C(=O)O)cc1`, the TD50 was 2660 mg/kg/day (mouse, strain Swiss albino, females, in drinking water, site: aorta and large arteries, lesion: leiomyoma, dosed 121 weeks, study length 121 weeks); 1970 mg/kg/day (mouse, strain Swiss albino, females, in drinking water, site: aorta and large arteries, lesion: leiomyosarcoma, dosed 121 weeks, study length 121 weeks); 1070 mg/kg/day (mouse, strain Swiss albino, females, in drinking water, site: aorta and large arteries, lesion: several types, types named in the paper, dosed 121 weeks, study length 121 weeks); 11200 mg/kg/day (mouse, strain Swiss albino, females, in drinking water, site: lung, lesion: adenocarcinoma, dosed 121 weeks, study length 121 weeks); 1170 mg/kg/day (mouse, strain Swiss albino, females, in drinking water, site: lung, lesion: adenoma, dosed 121 weeks, study length 121 weeks); 1140 mg/kg/day (mouse, strain Swiss albino, females, in drinking water, site: lung, lesion: several types, types named in the paper, dosed 121 weeks, study length 121 weeks). Besides, the TD50 (mouse, strain Swiss albino, males, in drinking water, site: aorta and large arteries, lesion: leiomyoma, dosed 120 weeks, study length 120 weeks) is 1490 mg/kg/day; the TD50 (mouse, strain Swiss albino, males, in drinking water, site: aorta and large arteries, lesion: leiomyosarcoma, dosed 120 weeks, study length 120 weeks) was 609 mg/kg/day; the TD50 (mouse, strain Swiss albino, males, in drinking water, site: aorta and large arteries, lesion: several types, types named in the paper, dosed 120 weeks, study length 120 weeks) is 380 mg/kg/day; the TD50 (mouse, strain Swiss albino, males, in drinking water, site: lung, lesion: adenoma, dosed 120 weeks, study length 120 weeks) amounted to 597 mg/kg/day; the TD50 (mouse, strain Swiss albino, males, in drinking water, site: lung, lesion: several types, types named in the paper, dosed 120 weeks, study length 120 weeks) is 675 mg/kg/day. Besides, the carcinogen call (mouse, strain Swiss, females, by gavage, site: lung, lesion: one or several types, types not named, dosed 40 weeks, study length 55 weeks) was “negative (inactive)”.

(Values after PubChem BioAssay AID1745844 (Carcinogenic Potency Database (CPDB), 2022).)
